≈ marks a conversion by molar mass, not a printed value. Read-outs that look alike come from different tables or passages of the source.
Columns and labels:
[1] = tested on: SARS-Related Coronavirus 2 Isolate USA-WA1/2020; format: cell-based, SARS-COV-2; conditions: treatment 2 hours pre-infection; for Mean Log10 Reduction: Vero E6, MOI=0.1, 2 days, vs untreated control

Row | SMILES | Mean Log10 Reduction ([1]; 10 μM) [Log10] | solubility (physchem; organic solvent or mixture) [mg/mL] | Mean Log10 Reduction ([1]; 1 μM) [Log10] | Mean Log10 Reduction ([1]; 2 μM) [Log10] | Mean Log10 Reduction ([1]; 4 μM) [Log10] | Mean Log10 Reduction ([1]; 8 μM) [Log10] | antiviral activity against SARS-COV-2 ([1]; 1-8 μM, Vero E6) | solubility (physchem; water) [mg/mL]
1 | CCC(CC)COC(=O)[C@H](C)N[P@](=O)(OC[C@H]1O[C@@](C#N)(c2ccc3c(N)ncnn23)[C@H](O)[C@@H]1O)Oc1ccccc1 [Remdesivir, reference compound] | 5.72 | 100 (≈ 166 mM) |  |  |  |  |  | 
2 | CN1CCN(CCCc2ccc(C(c3ccccc3)C34CC5CC(CC(C5)C3)C4)cc2)CC1 (stereo not drawn) [AV1066, 1-Methyl-4-[3-[4-(phenyltricyclo[3.3.1.1^3,7]dec-1-ylmethyl)phenyl]propyl]piperazine] |  | 21 (≈ 47.4 mM) | 0.00 | 0.10 | 1.33 | 4.89 | exhibited antiviral activity against SARS-COV-2 in a dose dependent manner | 4 (≈ 9.04 mM)
